Data on one substance can be found in US20220241378A1, “COMPOSITIONS AND METHODS FOR TREATMENT OF CHRONIC GRANULOMATOUS DISEASE” (priority 2019, published 2022).

The assay concerns p47phox-/- mice infected intranasally with A. fumigatus conidia. The experiment in a line: Survival of p47phox-/- mice infected intranasally with A. fumigatus conidia. The assay is classed as in vivo. As for the experimental part: To determine whether Tβ4 ameliorates tissue and immune pathologies in CGD mice the inventors of the present disclosure conducted experiments measuring the effect of Tβ4 in mice with aspergillosis and colitis. Specifically, mice were monitored for fungal growth, antifungal activity of effector cells, survival, lung histopathology, innate and adaptive Th immunity. […] Gross lung pathology and histological examination was conducted on p47phox-/- mice. […] Conversely, Tβ4 deficiency by means of siTβ4 administration promoted lung pathology in C57BL/6 mice (FIG. 10B).
Viable conidia from the A. fumigatus Af293 strain were obtained as described (De Luca et al., 2012). Mice were anesthetized in a plastic cage by inhalation of 3% isoflurane (Forane Abbot) in oxygen before intranasal instillation of 2×10^7 resting conidia/20 μl saline. For survival curves, p47^phox-/- mice were challenged with […] conidia/20 μl saline. […] Fungal burden was determined by qPCR and expressed as conidial equivalents (CE). […] Fungal burden was quantified by qPCR by using the sequences for the multicopy 18S ribosomal DNA gene. […]
GraphPad Prism 6.01 program (GraphPad Software) was used for analysis. Data are expressed as mean ±SD. Statistical significance was calculated by two-way ANOVA (Tukey's or Bonferroni's post hoc test) for multiple comparisons. […] Cell fluorescence intensity was measured by using the ImageJ software.

For the substance Thymosin β4 [Tβ4], the “mice survived at the time when all untreated mice had died” value (p47phox-/- mice treated for 5 days (FIG. 9)) is “more than 50%”. The “survival of infected mice” value (p47phox-/- mice treated for 5 days vs untreated (FIG. 9)) is “significantly increased”.
